Molecular target: T1, self-produced hTGase 2 (Homo sapiens, UniProt P21980)
T1 construct: thrombin cleavage site (N); made in house; host or cells: E. coli BL21(DE3)
T1 sequence (P21980 1-687): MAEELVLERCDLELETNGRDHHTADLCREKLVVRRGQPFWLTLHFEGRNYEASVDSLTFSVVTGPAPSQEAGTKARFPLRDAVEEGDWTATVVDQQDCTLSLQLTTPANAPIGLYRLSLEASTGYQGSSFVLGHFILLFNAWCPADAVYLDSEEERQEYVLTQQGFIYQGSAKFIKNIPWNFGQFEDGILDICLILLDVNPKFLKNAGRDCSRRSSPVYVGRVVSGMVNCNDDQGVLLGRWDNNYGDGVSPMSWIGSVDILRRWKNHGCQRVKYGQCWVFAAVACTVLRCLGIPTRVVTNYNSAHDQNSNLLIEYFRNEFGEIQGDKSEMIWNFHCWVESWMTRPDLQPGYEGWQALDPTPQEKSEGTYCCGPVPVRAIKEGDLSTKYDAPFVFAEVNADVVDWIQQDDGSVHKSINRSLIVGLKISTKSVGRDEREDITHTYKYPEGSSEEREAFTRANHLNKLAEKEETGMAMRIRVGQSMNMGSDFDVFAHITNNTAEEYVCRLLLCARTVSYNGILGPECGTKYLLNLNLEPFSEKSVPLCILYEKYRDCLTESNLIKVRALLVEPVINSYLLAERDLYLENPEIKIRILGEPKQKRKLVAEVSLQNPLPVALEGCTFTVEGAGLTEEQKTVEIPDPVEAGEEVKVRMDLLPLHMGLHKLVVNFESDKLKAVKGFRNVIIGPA
Test: native (GTP-)PAGE: conformational species of hTGase 2
Conditions: pre-incubation with 500 µM GTPγS
Experimental: Figure 7 Influence of inhibitors 1–3 on the activity and conformation of hTGase 2 in the absence and presence of Ca^2+ or/and GTPγS. Native (GTP-)PAGE was performed on 7% separating gels. The gel and the running buffer contained either no GTP (A) or 50 µM GTP (B). Samples of 8.23 µM self-produced hTGase 2 were incubated for 30 min at 20 °C in 100 mM MOPS pH 8.0, 100 mM NaCl, 5.33% (v/v) glycerol with CaCl2, DMSO or inhibitors 1–3 (2.12% DMSO), and GTPγS as indicated. After adding native loading buffer, 6 µL of each sample containing 3 µg of hTGase 2 was loaded onto the gel. After the electrophoretic separation, gels were stained with Coomassie Brilliant Blue G250, scanned, and the protein bands were quantified (Figure S6 in Supplementary Materials). […]
Sodium dodecyl sulfate-PAGE (SDS-PAGE) and native PAGE were performed on 4% stacking and 7% separating gels using Laemmli buffers (60 min with 120 V, 300 mA and 30 W at room temperature) and the same buffers without SDS (80 min with 120 V, 50 mA and 30 W at 4 °C), respectively. […] Afterward, the gels were scanned using a LI-COR Odyssey Fc Imager (700 channel) and analyzed using Image Studio software version 5.2.5. Detected bands were quantified based on the general procedure published by Wagstaff et al. and as detailed in legends to Figures S5 and S6. […]

Nc1nc2c(ncn2[C@@H]2O[C@H](COP(=O)(O)OP(=O)(O)OP(O)(O)=S)[C@@H](O)[C@H]2O)c(=O)[nH]1 [GTPγS] was tested, and the “effect on migrating hTGase 2 species” value was “favors the fast migrating hTGase 2 species”.

— article PMC9865645, “The Impact of N^ε-Acryloyllysine Piperazides on the Conformational Dynamics of Transglutaminase 2” (International Journal of Molecular Sciences, 2023)
